# Source: article PMC9230623, “Design, Synthesis, In Vitro Biological Activity Evaluation and Stabilized Nanostructured Lipid Carrier Formulation of Newly Synthesized Schiff Bases-Based TMP Moieties” (Pharmaceuticals, 2022)
# Read-outs that look alike come from different tables or passages of the source.
# Legend:
# [1] = test system: MDA-MB-231 breast cancer cell line; test: Cytotoxic assay against MDA-MB-231 breast cancer cell line; assay type: cell-based; conditions: Homo sapiens
# Protocol: The newly prepared Schiff bases 2–5g were screened for their in vitro cytotoxic activity against the MDA-MB-231 breast cancer cell line taking CA-4 as a reference drug. […] In addition, further structure extension to give N-aryl hydrazinyl molecules 4a–5g produced compounds with considerable cytotoxic activity, which may give an indication that the aryl ring is important for cytotoxic activity. […]
# Cytotoxic activity of the prepared schiff bases against MDA-MB-231 breast cell Line was determined according previously reported methods. (See Supplementary Materials—Appendix SB).
# [2] = test system: normal breast cell line MCF-10A; test: Cytotoxic assay against normal breast cell line MCF-10A; assay type: cell-based; conditions: Homo sapiens, read-out: IC50 Value (μM) MCF-10A
# [3] = MDA-MB-231, mean of three independent replicates ± SE, read-out: IC50 Value (μM) MDA-MB-231
melting point [°C],Structure (SMILES),"IC50 [1, 3] [µM]",IC50 [2] [µM],"IC50 ([1]; MDA-MB-231, read-out: IC50 Value (μM) MDA-MB-231) [µM]"
–,"COc1cc(/C=C(\NC(=O)c2cc(OC)c(OC)c(OC)c2)C(=O)N/N=C/c2ccc(O)cc2)cc(OC)c1OC [Compound 4e, N-((Z)-3-((E)-2-(4-Hydroxybenzylidene)hydrazinyl)-3-oxo-1-(3,4,5-trimethoxyphenyl)prop-1-en-2-yl)-3,4,5-trimethoxybenzamide]",7.1 ± 1.02,–,–
226 to 228,"COc1cc(/C=N/NC(=O)/C(=C/c2cc(OC)c(OC)c(OC)c2)NC(=O)c2cc(OC)c(OC)c(OC)c2)ccc1O [Compound 4j, N-((Z)-3-((E)-2-(4-Hydroxy-3-methoxybenzylidene)hydrazinyl)-3-oxo-1-(3,4,5-trimethoxyphenyl)prop-1-en-2-yl)-3,4,5-trimethoxybenzamide]",2.84 ± 0.18,–,–
–,"COc1ccc(/C=C\c2cc(OC)c(OC)c(OC)c2)cc1O [CA-4, combretastatin A-4, reference compound]",–,8.86 ± 0.67,0.54 ± 0.04
208 to 210,"COc1cc(/C=C(\NC(=O)c2cc(OC)c(OC)c(OC)c2)C(=O)N/N=C/c2ccc(C)cc2)cc(OC)c1OC [Compound 4f, 3,4,5-Trimethoxy-N-((Z)-3-((E)-2-(4-methylbenzylidene)hydrazinyl)-3-oxo-1-(3,4,5-trimethoxyphenyl)prop-1-en-2-yl)benzamide]",4.52 ± 0.36,–,–
212 to 214,"COc1cc(/C=C(\NC(=O)c2cc(OC)c(OC)c(OC)c2)C(=O)N/N=C/c2ccco2)cc(OC)c1OC [Compound 3, N-((Z)-3-((E)-2-(Furan-2-ylmethylene)hydrazinyl)-3-oxo-1-(3,4,5-trimethoxyphenyl)prop-1-en-2-yl)-3,4,5-trimethoxybenzamide]",6.08 ± 0.42,–,–
224 to 226,"C/C=N/NC(=O)/C(=C/c1cc(OC)c(OC)c(OC)c1)NC(=O)c1cc(OC)c(OC)c(OC)c1 [Compound 2, N-((Z)-3-((E)-2-Ethylidenehydrazinyl)-3-oxo-1-(3,4,5-trimethoxyphenyl)prop-1-en-2-yl)-3,4,5-trimethoxybenzamide]",31.6 ± 1.07,–,–
249 to 251,"COc1cc(/C=C(\NC(=O)c2cc(OC)c(OC)c(OC)c2)C(=O)N/N=C(\C)c2ccc(Cl)cc2)cc(OC)c1OC [Compound 5b, N-((Z)-3-((E)-2-(1-(4-Chlorophenyl)ethylidene)hydrazinyl)-3-oxo-1-(3,4,5-trimethoxyphenyl)prop-1-en-2-yl)-3,4,5-trimethoxybenzamide]",14 ± 1.19,–,–
260 to 262,"COc1cc(/C=C(\NC(=O)c2cc(OC)c(OC)c(OC)c2)C(=O)N/N=C(\C)c2ccccc2)cc(OC)c1OC [Compound 5a, 3,4,5-Trimethoxy-N-((Z)-3-oxo-3-((E)-2-(1-phenylethylidene)hydrazinyl)-1-(3,4,5-trimethoxyphenyl)prop-1-en-2-yl)benzamide]",20.2 ± 0.89,–,–
211 to 213,"COc1cc(/C=C(\NC(=O)c2cc(OC)c(OC)c(OC)c2)C(=O)N/N=C(\C)c2cc(OC)c(OC)c(OC)c2)cc(OC)c1OC [Compound 5g, 3,4,5-Trimethoxy-N-((Z)-3-oxo-1-(3,4,5-trimethoxyphenyl)-3-((E)-2-(1-(3,4,5-trimethoxyphenyl)ethylidene)hydrazinyl)prop-1-en-2-yl)benzamide]",3.39 ± 0.26,–,–
233 to 235,"COc1cc(/C=C(\NC(=O)c2cc(OC)c(OC)c(OC)c2)C(=O)N/N=C/c2ccc(Cl)cc2)cc(OC)c1OC [Compound 4b, N-((Z)-3-((E)-2-(4-Chlorobenzylidene)hydrazinyl)-3-oxo-1-(3,4,5-trimethoxyphenyl)prop-1-en-2-yl)-3,4,5-trimethoxybenzamide]",16.1 ± 0.83,–,–
244 to 246,"COc1cc(/C=C(\NC(=O)c2cc(OC)c(OC)c(OC)c2)C(=O)N/N=C(\C)c2ccc(Br)cc2)cc(OC)c1OC [Compound 5c, N-((Z)-3-((E)-2-(1-(4-Bromophenyl)ethylidene)hydrazinyl)-3-oxo-1-(3,4,5-trimethoxyphenyl)prop-1-en-2-yl)-3,4,5-trimethoxybenzamide]",20.7 ± 1.84,–,–
220 to 222,"COc1cc(/C=C(\NC(=O)c2cc(OC)c(OC)c(OC)c2)C(=O)N/N=C/c2ccccc2O)cc(OC)c1OC [Compound 4d, N-((Z)-3-((E)-2-(2-Hydroxybenzylidene)hydrazinyl)-3-oxo-1-(3,4,5-trimethoxyphenyl)prop-1-en-2-yl)-3,4,5-trimethoxybenzamide]",5.98 ± 0.28,–,–
241 to 243,"COc1ccc(/C(C)=N/NC(=O)/C(=C/c2cc(OC)c(OC)c(OC)c2)NC(=O)c2cc(OC)c(OC)c(OC)c2)cc1 [Compound 5e, 3,4,5-Trimethoxy-N-((Z)-3-((E)-2-(1-(4-methoxyphenyl)ethylidene)hydrazinyl)-3-oxo-1-(3,4,5-trimethoxyphenyl)prop-1-en-2-yl)benzamide]",9.52 ± 1.18,–,–
258 to 260,"COc1cc(/C=C(\NC(=O)c2cc(OC)c(OC)c(OC)c2)C(=O)N/N=C(\C)c2ccc(O)cc2)cc(OC)c1OC [Compound 5d, N-((Z)-3-((E)-2-(1-(4-Hydroxyphenyl)ethylidene)hydrazinyl)-3-oxo-1-(3,4,5-trimethoxyphenyl)prop-1-en-2-yl)-3,4,5-trimethoxybenzamide]",1.98 ± 0.19,–,–
214 to 216,"COc1cc(/C=N/NC(=O)/C(=C/c2cc(OC)c(OC)c(OC)c2)NC(=O)c2cc(OC)c(OC)c(OC)c2)cc(OC)c1 [Compound 4k, N-((Z)-3-((E)-2-(3,5-Dimethoxybenzylidene)hydrazinyl)-3-oxo-1-(3,4,5-trimethoxyphenyl)prop-1-en-2-yl)-3,4,5-trimethoxybenzamide]",4.8 ± 0.17,–,–
239 to 241,"COc1cc(/C=C(\NC(=O)c2cc(OC)c(OC)c(OC)c2)C(=O)N/N=C/c2ccccc2[N+](=O)[O-])cc(OC)c1OC [Compound 4c, 3,4,5-Trimethoxy-N-((Z)-3-((E)-2-(2-nitrobenzylidene)hydrazinyl)-3-oxo-1-(3,4,5-trimethoxyphenyl)prop-1-en-2-yl)benzamide]",38.8 ± 0.93,–,–
217 to 219,"COc1ccc(/C=N/NC(=O)/C(=C/c2cc(OC)c(OC)c(OC)c2)NC(=O)c2cc(OC)c(OC)c(OC)c2)cc1 [Compound 4g, 3,4,5-Trimethoxy-N-((Z)-3-((E)-2-(4-methoxybenzylidene)hydrazinyl)-3-oxo-1-(3,4,5-trimethoxyphenyl)prop-1-en-2-yl)benzamide]",3.43 ± 0.22,–,–
201 to 203,"COc1cc(/C=C(\NC(=O)c2cc(OC)c(OC)c(OC)c2)C(=O)N/N=C/c2ccc(F)cc2)cc(OC)c1OC [Compound 4a, N-((Z)-3-((E)-2-(4-Fluorobenzylidene)hydrazinyl)-3-oxo-1-(3,4,5-trimethoxyphenyl)prop-1-en-2-yl)-3,4,5-trimethoxybenzamide]",23.7 ± 1.13,–,–
243 to 245,"COc1cc(/C=C(\NC(=O)c2cc(OC)c(OC)c(OC)c2)C(=O)N/N=C/c2ccc(N(C)C)cc2)cc(OC)c1OC [Compound 4i, N-((Z)-3-((E)-2-(4-(Dimethylamino)benzylidene)hydrazinyl)-3-oxo-1-(3,4,5-trimethoxyphenyl)prop-1-en-2-yl)-3,4,5-trimethoxybenzamide]",3.46 ± 0.51,–,–
–,"COc1cc(/C=C(\NC(=O)c2cc(OC)c(OC)c(OC)c2)C(=O)N/N=C/c2cc(OC)c(OC)c(OC)c2)cc(OC)c1OC [Compound 4l, 3,4,5-Trimethoxy-N-((Z)-3-oxo-3-((E)-2-(3,4,5-trimethoxybenzylidene)hydrazinyl)-1-(3,4,5-trimethoxyphenyl)prop-1-en-2-yl)benzamide]",7.3 ± 0.64,–,–
234 to 236,"COc1ccc(/C(C)=N/NC(=O)/C(=C/c2cc(OC)c(OC)c(OC)c2)NC(=O)c2cc(OC)c(OC)c(OC)c2)cc1OC [Compound 5f, N-((Z)-3-((E)-2-(1-(3,4-Dimethoxyphenyl)ethylidene)hydrazinyl)-3-oxo-1-(3,4,5-trimethoxyphenyl)prop-1-en-2-yl)-3,4,5-trimethoxybenzamide]",8.34 ± 1.22,–,–
